Measurements: US8461328B2, “Tricyclic heterocyclic compounds, compositions and methods of use thereof” (Genentech, Inc., priority 2010, dated 2013)

Key:
Assay type in all cases: biochemical
JAK1 = biological target: T1, JAK1 (Homo sapiens, UniProt P23458); assay: JAK1 inhibition (Table 4); settings: read-out: JAK1 Ki
T1 construct: made in house; host or cells: SF9 insect cells (baculovirus)

TYK2 = biological target: T2, TYK2 (Homo sapiens, UniProt P29597); assay: TYK2 inhibition (Table 4)
T2 construct: made in house; host or cells: SF9 insect cells (baculovirus)
T2 sequence (P29597 873-1187): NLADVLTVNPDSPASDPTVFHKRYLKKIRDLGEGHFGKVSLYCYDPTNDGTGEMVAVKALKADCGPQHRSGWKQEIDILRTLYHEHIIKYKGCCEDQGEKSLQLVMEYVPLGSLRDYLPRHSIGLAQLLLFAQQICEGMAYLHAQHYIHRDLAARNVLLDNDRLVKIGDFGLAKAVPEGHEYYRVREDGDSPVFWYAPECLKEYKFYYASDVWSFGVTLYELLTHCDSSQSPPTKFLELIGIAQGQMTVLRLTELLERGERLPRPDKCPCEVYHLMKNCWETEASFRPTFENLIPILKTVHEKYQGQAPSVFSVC

JAK3 = biological target: T3, JAK3 (Homo sapiens, UniProt P52333); assay: JAK3 inhibition (Table 4); settings: read-out: JAK3 Ki
T3 construct: made in house; host or cells: SF9 insect cells (baculovirus)

JAK2 = biological target: T4, JAK2 (Homo sapiens, UniProt O60674); assay: JAK2 inhibition (Table 4); settings: read-out: JAK2 Ki
T4 construct: made in house; host or cells: SF9 insect cells (baculovirus)
T4 sequence (O60674 812-1132): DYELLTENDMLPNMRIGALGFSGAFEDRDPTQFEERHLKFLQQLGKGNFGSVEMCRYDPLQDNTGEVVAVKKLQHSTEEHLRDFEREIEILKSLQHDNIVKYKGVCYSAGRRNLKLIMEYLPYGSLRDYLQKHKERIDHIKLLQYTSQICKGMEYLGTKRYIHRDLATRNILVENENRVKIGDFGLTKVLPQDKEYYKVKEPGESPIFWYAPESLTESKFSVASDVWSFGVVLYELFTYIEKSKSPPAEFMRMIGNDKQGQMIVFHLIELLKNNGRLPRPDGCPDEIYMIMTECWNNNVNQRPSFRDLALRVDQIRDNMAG

T3 sequence (P52333 783-1124): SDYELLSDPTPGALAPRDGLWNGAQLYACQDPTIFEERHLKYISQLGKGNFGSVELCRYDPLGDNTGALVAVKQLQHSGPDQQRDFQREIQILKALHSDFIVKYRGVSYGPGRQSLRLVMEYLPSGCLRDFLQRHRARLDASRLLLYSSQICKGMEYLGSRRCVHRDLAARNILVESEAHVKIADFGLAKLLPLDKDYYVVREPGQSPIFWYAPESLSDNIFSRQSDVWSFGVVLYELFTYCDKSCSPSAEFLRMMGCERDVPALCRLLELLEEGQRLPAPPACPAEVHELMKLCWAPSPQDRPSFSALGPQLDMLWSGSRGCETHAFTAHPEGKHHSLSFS
T1 sequence (P23458 852-1154): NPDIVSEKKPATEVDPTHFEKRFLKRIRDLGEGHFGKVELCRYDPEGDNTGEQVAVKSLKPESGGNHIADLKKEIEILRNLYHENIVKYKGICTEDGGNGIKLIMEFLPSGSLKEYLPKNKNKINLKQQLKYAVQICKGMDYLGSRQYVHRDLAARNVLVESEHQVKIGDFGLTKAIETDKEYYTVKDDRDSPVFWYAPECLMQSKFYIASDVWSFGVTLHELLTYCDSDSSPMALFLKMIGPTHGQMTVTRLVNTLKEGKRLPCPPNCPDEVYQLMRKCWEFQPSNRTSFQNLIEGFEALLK

Ki (JAK1) [µM] | Ki (TYK2) [µM] | Ki (JAK3) [µM] | Ki (JAK2) [µM] | Compound
0.0216 | 0.545 | 0.125 | 0.0787 | Cn1cc(CCc2nc3cnc4[nH]ccc4c3n2C2CCN(CCC#N)CC2)cn1 [Example 412, 3-(4-{2-[2-(1-Methyl-1H-pyrazol-4-yl)-ethyl]-6H-1,3,5,6-tetraaza-as-indacen-1-yl}-piperidin-1-yl)-propionitrile]
0.0211 | 0.181 | 0.224 | 0.0598 | Cc1cnn(CCc2nc3cnc4[nH]ccc4c3n2C2CCN(CCC#N)CC2)c1 [Example 413, 3-(4-{2-[2-(4-Methyl-pyrazol-1-yl)-ethyl]-6H-1,3,5,6-tetraaza-as-indacen-1-yl}-piperidin-1-yl)-propionitrile]
0.0176 | 0.137 | 0.155 | 0.0557 | N#CCCN1CCC(n2c(CCn3cccn3)nc3cnc4[nH]ccc4c32)CC1 [Example 414, 3-{4-[2-(2-Pyrazol-1-yl-ethyl)-6H-1,3,5,6-tetraaza-as-indacen-1-yl]-piperidin-1-yl}-propionitrile]
0.0662 | 0.0286 | 0.0391 | 0.0806 | Cc1nc2cnc3[nH]ccc3c2n1[C@H]1CC[C@@H](C(=O)O)CC1 [Example 420, 4-(2-Methyl-6H-1,3,5,6-tetraaza-as-indacen-1-yl)-cyclohexanecarboxylic acid]
0.251 | 2.34 | 0.433 | 0.747 | Cc1nc2cnc3[nH]ccc3c2n1[C@H](C)CO [Example 421, (R)-2-(2-Methyl-6H-1,3,5,6-tetraaza-as-indacen-1-yl)-propan-1-ol]
0.141 | 1.23 | 0.31 | 0.378 | Cc1nc2cnc3[nH]ccc3c2n1[C@@H](C)CO [Example 422, (S)-2-(2-Methyl-6H-1,3,5,6-tetraaza-as-indacen-1-yl)-propan-1-ol]
0.00988 | 0.112 | 0.00967 | 0.0141 | CCCC1(n2c(C)nc3cnc4[nH]ccc4c32)CC1 [Example 423, 2-Methyl-1-(1-propyl-cyclopropyl)-1,6-dihydro-1,3,5,6-tetraaza-as-indacene]
0.0463 | 0.317 | 0.0329 | 0.0633 | COC[C@H](C)n1c(C)nc2cnc3[nH]ccc3c21 [Example 424, 1-((S)-2-Methoxy-1-methyl-ethyl)-2-methyl-1,6-dihydro-1,3,5,6-tetraaza-as-indacene]
0.0834 | 0.399 | 0.177 | 0.0978 | Cc1nc2cnc3[nH]ccc3c2n1C1CC1 [Example 425, 1-Cyclopropyl-2-methyl-1,6-dihydro-1,3,5,6-tetraaza-as-indacene]
0.0589 | 0.507 | 1.24 | 0.162 | O=C(Cc1ccccc1)N1CC[C@@H](n2cnc3cnc4[nH]ccc4c32)C1 [Example 430, 2-Phenyl-1-[(R)-3-(6H-1,3,5,6-tetraaza-as-indacen-1-yl)-pyrrolidin-1-yl]-ethanone]
0.0371 | 1.15 | 3.52 | 0.175 | N#Cc1ccc(CC(=O)N2CC[C@@H](n3cnc4cnc5[nH]ccc5c43)C2)cc1 [Example 431, 4-{2-Oxo-2-[(R)-3-(6H-1,3,5,6-tetraaza-as-indacen-1-yl)-pyrrolidin-1-yl]-ethyl}-benzonitrile]
0.0197 | 0.0732 | 1.28 | 0.0179 | O=S(=O)(c1ccccc1)N1CC[C@@H](n2cnc3cnc4[nH]ccc4c32)C1 [Example 432, 1-((R)-1-Benzenesulfonyl-pyrrolidin-3-yl)-1,6-dihydro-1,3,5,6-tetraaza-as-indacene]
0.00567 | 0.0325 | 1.2 | 0.00622 | N#Cc1cccc(S(=O)(=O)N2CC[C@@H](n3cnc4cnc5[nH]ccc5c43)C2)c1 [Example 434, 3-[(R)-3-(6H-1,3,5,6-Tetraaza-as-indacen-1-yl)-pyrrolidine-1-sulfonyl]-benzonitrile]
0.0321 | 0.265 | 0.226 | 0.0281 | O=S(=O)(Cc1ccccc1)N1CC[C@@H](n2cnc3cnc4[nH]ccc4c32)C1 [Example 435, 1-((R)-1-Phenylmethanesulfonyl-pyrrolidin-3-yl)-1,6-dihydro-1,3,5,6-tetraaza-as-indacene]
0.0089 | 0.0977 | 0.21 | 0.0125 | N#Cc1cccc(CN2CC[C@@H](n3cnc4cnc5[nH]ccc5c43)C2)c1 [Example 436, 3-[(R)-3-(6H-1,3,5,6-Tetraaza-as-indacen-1-yl)-pyrrolidin-1-ylmethyl]-benzonitrile]
0.00387 | 0.0556 | 0.153 | 0.0112 | O=C(CO)N1CCC(n2cnc3cnc4[nH]ccc4c32)CC1 [Example 437, 2-Hydroxy-1-[4-(6H-1,3,5,6-tetraaza-as-indacen-1-yl)-piperidin-1-yl]-ethanone]
0.0842 | 1.98 | 1.11 | 0.437 | CN(C)CCC(=O)N1CCC(n2cnc3cnc4[nH]ccc4c32)CC1 [Example 439, 3-Dimethylamino-1-[4-(6H-1,3,5,6-tetraaza-as-indacen-1-yl)-piperidin-1-yl]-propan-1-one]
0.0432 | 0.713 | 0.844 | 0.115 | O=C(CN1CCCC1=O)N1CCC(n2cnc3cnc4[nH]ccc4c32)CC1 [Example 440, 1-{2-Oxo-2-[4-(6H-1,3,5,6-tetraaza-as-indacen-1-yl)-piperidin-1-yl]-ethyl}-pyrrolidin-2-one]
0.0558 | 0.832 | 1.53 | 0.179 | O=C(CN1CCCCC1=O)N1CCC(n2cnc3cnc4[nH]ccc4c32)CC1 [Example 441, 1-{2-Oxo-2-[4-(6H-1,3,5,6-tetraaza-as-indacen-1-yl)-piperidin-1-yl]-ethyl}-piperidin-2-one]
0.00287 | 0.0188 | 0.105 | 0.00402 | CCS(=O)(=O)N1CCC(n2cnc3cnc4[nH]ccc4c32)CC1 [Example 442, 1-(1-Ethanesulfonyl-piperidin-4-yl)-1,6-dihydro-1,3,5,6-tetraaza-as-indacene]
0.00811 | 0.0473 | 0.419 | 0.0139 | O=S(=O)(C1CCCC1)N1CCC(n2cnc3cnc4[nH]ccc4c32)CC1 [Example 443, 1-(1-Cyclopentanesulfonyl-piperidin-4-yl)-1,6-dihydro-1,3,5,6-tetraaza-as-indacene]
0.0119 | 0.0969 | 0.084 | 0.0392 | O=C1CCCN1c1ccc(S(=O)(=O)N2CCC(n3cnc4cnc5[nH]ccc5c43)CC2)cc1 [Example 445, 1-{4-[4-(6H-1,3,5,6-Tetraaza-as-indacen-1-yl)-piperidine-1-sulfonyl]-phenyl}-pyrrolidin-2-one]
0.00114 | 0.0103 | 0.189 | 0.00225 | N#Cc1ccc(S(=O)(=O)N2CCC(n3cnc4cnc5[nH]ccc5c43)CC2)c(Cl)c1 [Example 446, 3-Chloro-4-[4-(6H-1,3,5,6-tetraaza-as-indacen-1-yl)-piperidine-1-sulfonyl]-benzonitrile]
